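Briefly, cells in 96-well plates were exposed to five compound concentrations for 48 h, and endpoints were estimated by linear interpolation. GI50 is the concentration that inhibits growth by half.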 The source made the active and inactive calls. No stated cut-off is given here; in the data, active = GI50 up to about 1.1 µM and inactive = higher.
How the values were obtained:
Assay in all cases: NCI tumour cell line growth inhibition, 48 h
NCI/ADR-RES = tested on: NCI/ADR-RES
NCI-H460 = tested on: NCI-H460
HCT-116 = tested on: HCT-116
Hs-578T = tested on: Hs-578T
HOP-92 = tested on: HOP-92
IGROV-1 = tested on: IGROV-1
CCRF-CEM = tested on: CCRF-CEM
MCF7 = tested on: MCF7
LOX IMVI = tested on: LOX IMVI
KM12 = tested on: KM12
SNB-19 = tested on: SNB-19
COLO 205 = tested on: COLO 205
SK-MEL-28 = tested on: SK-MEL-28
HOP-62 = tested on: HOP-62
PC-3 = tested on: PC-3
OVCAR-8 = tested on: OVCAR-8
SN12C = tested on: SN12C
UACC-257 = tested on: UACC-257
A498 = tested on: A498

Measured: GI50

OCC1CCCCCCCCCCC12SCCCS2 (centres undefined)
inactive: NCI/ADR-RES > 100 µM | NCI-H460 > 100 µM | HCT-116 > 100 µM | Hs-578T > 100 µM | HOP-92 > 100 µM | IGROV-1 > 100 µM | CCRF-CEM > 100 µM | MCF7 > 100 µM | LOX IMVI > 100 µM | KM12 > 100 µM | SNB-19 > 100 µM | COLO 205 > 100 µM | SK-MEL-28 > 100 µM | HOP-62 > 100 µM | PC-3 71 µM

N#Cc1ccc(-c2nc3cc(Cl)ccc3[nH]2)cc1
inactive: NCI/ADR-RES 30.4 µM | Hs-578T > 100 µM | HOP-92 > 100 µM | OVCAR-8 42.8 µM | IGROV-1 > 100 µM | CCRF-CEM 41.2 µM | MCF7 63 µM | SN12C 51.1 µM | KM12 25.3 µM | SNB-19 > 100 µM | COLO 205 74.8 µM | HOP-62 > 100 µM | PC-3 40.2 µM

CCOC(=O)c1ccc(Nc2nc3cc(C(F)(F)F)ccc3nc2-c2ccccc2)cc1
inactive: NCI/ADR-RES 70.5 µM | NCI-H460 45.7 µM | HCT-116 67.6 µM | Hs-578T 36.1 µM | UACC-257 > 100 µM | OVCAR-8 31.3 µM | IGROV-1 36.1 µM | CCRF-CEM 43.3 µM | MCF7 19.8 µM | LOX IMVI > 100 µM | SN12C 86.1 µM | KM12 28.4 µM | SNB-19 29.2 µM | COLO 205 42.7 µM | SK-MEL-28 > 100 µM | HOP-62 20.9 µM | PC-3 22.2 µM

COc1ccc(N2C(=O)C(=O)C3(CCCCC3)C2=O)c(OC)c1OC
inactive: NCI/ADR-RES > 100 µM | HCT-116 > 100 µM | Hs-578T > 100 µM | UACC-257 > 100 µM | OVCAR-8 > 100 µM | CCRF-CEM > 100 µM | MCF7 > 100 µM | LOX IMVI > 100 µM | SN12C > 100 µM | KM12 > 100 µM | SNB-19 > 100 µM | COLO 205 > 100 µM | SK-MEL-28 > 100 µM | PC-3 > 100 µM

CC(=O)Nc1ccc2nc(-c3cccc(Cl)c3)cc(O)c2c1
inactive: NCI/ADR-RES > 100 µM | NCI-H460 > 10 µM | Hs-578T 2.59 µM | HOP-92 4.85 µM | UACC-257 > 100 µM | OVCAR-8 36.9 µM | IGROV-1 13.4 µM | CCRF-CEM 3.44 µM | MCF7 3.77 µM | SN12C 32.2 µM | KM12 4.83 µM | SNB-19 7.62 µM | COLO 205 2.99 µM | SK-MEL-28 39.3 µM | HOP-62 65 µM | PC-3 4.72 µM

CCOC(=O)c1c(N)sc2c1C(C(=O)OCC)CCCC2 (centres undefined)
inactive: NCI-H460 35.2 µM | HCT-116 43.1 µM | Hs-578T 43.9 µM | HOP-92 75.5 µM | UACC-257 57.9 µM | OVCAR-8 89.3 µM | IGROV-1 > 100 µM | MCF7 > 100 µM | SN12C 91 µM | KM12 > 100 µM | SNB-19 71.6 µM | COLO 205 85.7 µM | SK-MEL-28 > 100 µM | A498 20.2 µM | HOP-62 > 100 µM | PC-3 32.9 µM

O=C(c1ccccc1)c1ccc2[nH]c(-c3c(Cl)c(Cl)c(Cl)c(Cl)c3C(=O)N/N=C/c3ccccc3)nc2c1
inactive: NCI/ADR-RES 19.8 µM | HCT-116 32.1 µM | Hs-578T 37.7 µM | HOP-92 23.7 µM | UACC-257 23.3 µM | OVCAR-8 32.2 µM | IGROV-1 14.9 µM | CCRF-CEM 12.3 µM | MCF7 13.6 µM | LOX IMVI 26.4 µM | SN12C 18.9 µM | KM12 28.2 µM | SNB-19 32.6 µM | COLO 205 17.5 µM | SK-MEL-28 24 µM | HOP-62 23.1 µM | PC-3 24.1 µM

ClC(Cl)(Cl)C1CCOC1n1nc2ccccc2n1 (centres undefined)
inactive: NCI/ADR-RES > 100 µM | NCI-H460 > 100 µM | HCT-116 > 100 µM | Hs-578T > 100 µM | UACC-257 > 100 µM | OVCAR-8 > 100 µM | IGROV-1 > 100 µM | CCRF-CEM > 100 µM | MCF7 > 100 µM | SN12C > 100 µM | COLO 205 > 100 µM | A498 > 100 µM | HOP-62 > 100 µM | PC-3 > 100 µM

COc1ccc(-n2sc3ncc([N+](=O)[O-])cc3c2=O)cc1
inactive: NCI/ADR-RES > 100 µM | NCI-H460 > 100 µM | HCT-116 > 100 µM | Hs-578T 32.1 µM | UACC-257 > 100 µM | OVCAR-8 > 100 µM | IGROV-1 > 100 µM | CCRF-CEM 96.4 µM | MCF7 > 100 µM | LOX IMVI > 100 µM | SN12C > 100 µM | KM12 > 100 µM | SNB-19 > 100 µM | COLO 205 > 100 µM | SK-MEL-28 > 100 µM | HOP-62 > 100 µM | PC-3 > 100 µM
